Results reported in ChEMBL document CHEMBL5325412, “Privileged heterocycles for DNA-encoded library design and hit-to-lead optimization” (Eur J Med Chem, 2023).
Values after ≈ are worked out from the molar mass of the structure shown. Each block holds one molecule with its values, some of them ahead of it.

Legend:
[1] = Inhibition of Hepatitis C virus genotype 1a NS4B; design: species or system Hepacivirus hominis
Bacillus subtilis = experiment: Antibacterial activity against Bacillus subtilis ATCC 23857 assessed as bacterial growth inhibition incubated for 16 hrs by broth dilution assay; assay type: functional
Escherichia coli = experiment: Antibacterial activity against Escherichia coli ATCC 25922 assessed as bacterial growth inhibition measured after 16 hrs by broth dilution assay; assay type: functional
[2] = molecular target: T1, Poly [ADP-ribose] polymerase tankyrase-1 (Homo sapiens, UniProt O95271); experiment: Binding affinity to TNKS1 (unknown origin) assessed as dissociation constant
T1 sequence (O95271 whole entry): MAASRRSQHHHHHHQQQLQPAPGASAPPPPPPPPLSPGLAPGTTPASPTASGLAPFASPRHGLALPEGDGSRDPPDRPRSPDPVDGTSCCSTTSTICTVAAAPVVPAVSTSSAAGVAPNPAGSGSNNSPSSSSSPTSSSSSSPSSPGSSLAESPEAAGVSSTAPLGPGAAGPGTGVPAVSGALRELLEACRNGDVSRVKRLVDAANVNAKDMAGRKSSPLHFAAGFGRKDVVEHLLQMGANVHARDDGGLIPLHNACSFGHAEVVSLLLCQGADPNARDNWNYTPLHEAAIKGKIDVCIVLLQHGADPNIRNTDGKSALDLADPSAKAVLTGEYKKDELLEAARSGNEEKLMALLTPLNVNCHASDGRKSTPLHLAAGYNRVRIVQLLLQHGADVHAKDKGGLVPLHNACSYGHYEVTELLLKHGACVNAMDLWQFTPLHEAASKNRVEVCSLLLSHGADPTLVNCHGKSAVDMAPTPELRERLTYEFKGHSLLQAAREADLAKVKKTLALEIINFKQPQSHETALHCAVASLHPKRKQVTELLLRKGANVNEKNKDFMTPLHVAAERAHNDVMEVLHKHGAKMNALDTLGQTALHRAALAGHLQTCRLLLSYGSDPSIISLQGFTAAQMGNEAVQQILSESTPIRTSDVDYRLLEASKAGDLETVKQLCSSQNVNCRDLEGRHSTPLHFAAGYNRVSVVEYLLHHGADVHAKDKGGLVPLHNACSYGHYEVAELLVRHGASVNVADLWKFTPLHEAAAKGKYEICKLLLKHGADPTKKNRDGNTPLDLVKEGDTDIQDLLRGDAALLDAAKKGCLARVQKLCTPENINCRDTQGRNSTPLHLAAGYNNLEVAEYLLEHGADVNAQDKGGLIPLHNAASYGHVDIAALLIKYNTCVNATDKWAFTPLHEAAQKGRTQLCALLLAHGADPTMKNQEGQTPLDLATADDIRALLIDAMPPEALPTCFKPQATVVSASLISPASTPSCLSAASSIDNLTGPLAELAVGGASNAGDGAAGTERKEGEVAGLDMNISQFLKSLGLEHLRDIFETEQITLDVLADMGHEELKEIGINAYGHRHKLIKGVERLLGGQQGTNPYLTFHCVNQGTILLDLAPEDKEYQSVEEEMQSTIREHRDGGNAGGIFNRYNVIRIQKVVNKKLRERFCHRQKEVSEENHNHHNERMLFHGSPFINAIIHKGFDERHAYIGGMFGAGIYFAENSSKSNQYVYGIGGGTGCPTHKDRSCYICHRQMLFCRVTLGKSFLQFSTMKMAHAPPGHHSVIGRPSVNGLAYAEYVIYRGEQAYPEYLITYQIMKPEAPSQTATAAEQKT

[3] = Binding affinity to bacterial beta-lactamase OXA-48 expressed in Escherichia coli BL21 (DE3) using nitrocefin as substrate pre-incubated for 5 mins and measured for 20 mins by spectrometric analysis; design: species or system Bacteria
Autotaxin = Autotaxin (Homo sapiens, UniProt Q13822); experiment: Inhibition of ATX (unknown origin)
[4] = molecular target: T2, 2',5'-phosphodiesterase 12 (Homo sapiens, UniProt Q6L8Q7); experiment: Binding affinity to PDE12 (unknown origin) (17 to 609 residues) assessed as inhibition constant by AMP-glo reagent based assay
T2 sequence (Q6L8Q7 whole entry): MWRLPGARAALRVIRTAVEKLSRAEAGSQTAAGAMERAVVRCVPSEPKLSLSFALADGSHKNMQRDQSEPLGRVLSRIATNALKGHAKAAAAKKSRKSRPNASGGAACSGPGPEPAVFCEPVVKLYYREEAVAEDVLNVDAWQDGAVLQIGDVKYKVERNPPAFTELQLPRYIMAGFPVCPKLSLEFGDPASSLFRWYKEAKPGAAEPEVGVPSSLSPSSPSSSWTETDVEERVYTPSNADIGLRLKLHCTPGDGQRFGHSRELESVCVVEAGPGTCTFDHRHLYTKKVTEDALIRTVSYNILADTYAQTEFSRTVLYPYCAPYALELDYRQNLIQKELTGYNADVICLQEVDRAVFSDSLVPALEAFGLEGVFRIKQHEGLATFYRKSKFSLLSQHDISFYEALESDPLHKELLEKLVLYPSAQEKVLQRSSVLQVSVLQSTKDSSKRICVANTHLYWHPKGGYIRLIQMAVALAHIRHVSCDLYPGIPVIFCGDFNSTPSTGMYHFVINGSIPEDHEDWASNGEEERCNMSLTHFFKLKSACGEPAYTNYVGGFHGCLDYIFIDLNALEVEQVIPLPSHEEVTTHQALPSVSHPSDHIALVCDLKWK

[5] = Inhibition of MAPK p68 (unknown origin); design: species or system Homo sapiens
Prothrombin = Prothrombin (Homo sapiens, UniProt P00734); experiment: Binding affinity to thrombin (unknown origin) assessed as inhibition constant
CREB-binding protein = CREB-binding protein (Homo sapiens, UniProt Q92793); experiment: Inhibition of N-terminal His-tagged CREBBP (unknown origin) expressed in Escherichia coli BL21 (DE3)
Chain of CREB-binding protein (Q92793 whole entry): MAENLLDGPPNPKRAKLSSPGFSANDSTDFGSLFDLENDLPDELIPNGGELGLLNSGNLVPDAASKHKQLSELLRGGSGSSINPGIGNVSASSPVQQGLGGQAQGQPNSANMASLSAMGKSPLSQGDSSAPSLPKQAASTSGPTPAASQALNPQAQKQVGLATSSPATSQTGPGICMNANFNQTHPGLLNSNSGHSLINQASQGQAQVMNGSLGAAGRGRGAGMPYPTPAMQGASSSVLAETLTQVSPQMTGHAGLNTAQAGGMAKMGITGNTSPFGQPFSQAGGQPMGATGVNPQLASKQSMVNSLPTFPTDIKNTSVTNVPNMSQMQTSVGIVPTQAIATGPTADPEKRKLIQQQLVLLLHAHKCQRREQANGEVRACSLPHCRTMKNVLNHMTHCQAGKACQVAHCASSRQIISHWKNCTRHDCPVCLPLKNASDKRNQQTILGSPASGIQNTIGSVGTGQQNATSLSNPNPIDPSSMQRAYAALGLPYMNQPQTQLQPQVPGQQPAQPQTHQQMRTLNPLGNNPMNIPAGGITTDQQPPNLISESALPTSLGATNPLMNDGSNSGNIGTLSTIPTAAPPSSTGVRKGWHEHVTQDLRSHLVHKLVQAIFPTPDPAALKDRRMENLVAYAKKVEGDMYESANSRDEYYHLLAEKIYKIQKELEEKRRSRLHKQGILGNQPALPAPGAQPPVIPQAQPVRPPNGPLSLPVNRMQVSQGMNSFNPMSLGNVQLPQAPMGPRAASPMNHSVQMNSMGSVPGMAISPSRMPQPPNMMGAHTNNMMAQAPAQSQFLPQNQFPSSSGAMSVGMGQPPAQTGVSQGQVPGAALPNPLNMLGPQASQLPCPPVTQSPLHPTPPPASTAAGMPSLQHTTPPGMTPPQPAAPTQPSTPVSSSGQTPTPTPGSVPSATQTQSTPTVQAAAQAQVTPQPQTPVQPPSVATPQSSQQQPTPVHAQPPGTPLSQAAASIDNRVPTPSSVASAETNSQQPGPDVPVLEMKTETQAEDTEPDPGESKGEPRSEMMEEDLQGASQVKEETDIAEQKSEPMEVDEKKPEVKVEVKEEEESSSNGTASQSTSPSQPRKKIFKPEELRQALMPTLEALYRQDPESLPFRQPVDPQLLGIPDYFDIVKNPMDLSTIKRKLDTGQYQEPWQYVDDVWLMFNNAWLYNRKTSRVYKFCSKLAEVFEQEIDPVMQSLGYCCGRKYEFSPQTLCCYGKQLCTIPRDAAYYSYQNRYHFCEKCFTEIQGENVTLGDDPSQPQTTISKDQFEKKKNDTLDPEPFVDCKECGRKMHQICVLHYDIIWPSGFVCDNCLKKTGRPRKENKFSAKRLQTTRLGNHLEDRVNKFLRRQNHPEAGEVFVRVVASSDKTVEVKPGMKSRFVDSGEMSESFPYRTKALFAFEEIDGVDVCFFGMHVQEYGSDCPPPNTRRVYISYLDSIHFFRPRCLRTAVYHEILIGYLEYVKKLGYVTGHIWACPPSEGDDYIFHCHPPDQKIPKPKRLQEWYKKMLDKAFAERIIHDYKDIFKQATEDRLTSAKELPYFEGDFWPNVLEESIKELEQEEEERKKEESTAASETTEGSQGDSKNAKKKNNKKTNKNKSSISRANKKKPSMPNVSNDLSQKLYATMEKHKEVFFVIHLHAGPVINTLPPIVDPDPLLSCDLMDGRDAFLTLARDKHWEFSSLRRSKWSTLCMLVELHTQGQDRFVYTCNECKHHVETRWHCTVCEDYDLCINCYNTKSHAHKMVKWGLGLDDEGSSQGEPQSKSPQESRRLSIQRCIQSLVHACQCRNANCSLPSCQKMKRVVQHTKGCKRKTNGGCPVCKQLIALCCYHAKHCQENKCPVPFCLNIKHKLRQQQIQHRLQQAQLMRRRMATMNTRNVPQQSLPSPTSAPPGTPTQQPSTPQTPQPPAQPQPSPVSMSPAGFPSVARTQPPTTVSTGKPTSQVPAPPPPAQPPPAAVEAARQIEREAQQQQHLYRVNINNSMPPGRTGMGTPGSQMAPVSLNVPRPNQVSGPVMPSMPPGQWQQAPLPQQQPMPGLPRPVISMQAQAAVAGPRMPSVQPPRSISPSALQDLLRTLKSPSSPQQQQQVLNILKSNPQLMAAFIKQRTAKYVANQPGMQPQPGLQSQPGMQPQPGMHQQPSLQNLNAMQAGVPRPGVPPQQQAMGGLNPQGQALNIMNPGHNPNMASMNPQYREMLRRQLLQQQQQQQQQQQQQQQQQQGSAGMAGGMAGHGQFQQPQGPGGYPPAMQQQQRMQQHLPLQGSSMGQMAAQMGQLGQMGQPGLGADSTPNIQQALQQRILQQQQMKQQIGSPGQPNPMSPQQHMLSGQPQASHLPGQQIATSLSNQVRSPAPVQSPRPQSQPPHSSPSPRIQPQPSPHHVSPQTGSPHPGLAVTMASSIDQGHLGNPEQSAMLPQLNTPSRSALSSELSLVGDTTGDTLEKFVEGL

Albumin = Albumin (Homo sapiens, UniProt P02768); experiment: Binding affinity to human serum albumin by fluorescence polarization assay
Chain of Albumin (P02768 whole entry): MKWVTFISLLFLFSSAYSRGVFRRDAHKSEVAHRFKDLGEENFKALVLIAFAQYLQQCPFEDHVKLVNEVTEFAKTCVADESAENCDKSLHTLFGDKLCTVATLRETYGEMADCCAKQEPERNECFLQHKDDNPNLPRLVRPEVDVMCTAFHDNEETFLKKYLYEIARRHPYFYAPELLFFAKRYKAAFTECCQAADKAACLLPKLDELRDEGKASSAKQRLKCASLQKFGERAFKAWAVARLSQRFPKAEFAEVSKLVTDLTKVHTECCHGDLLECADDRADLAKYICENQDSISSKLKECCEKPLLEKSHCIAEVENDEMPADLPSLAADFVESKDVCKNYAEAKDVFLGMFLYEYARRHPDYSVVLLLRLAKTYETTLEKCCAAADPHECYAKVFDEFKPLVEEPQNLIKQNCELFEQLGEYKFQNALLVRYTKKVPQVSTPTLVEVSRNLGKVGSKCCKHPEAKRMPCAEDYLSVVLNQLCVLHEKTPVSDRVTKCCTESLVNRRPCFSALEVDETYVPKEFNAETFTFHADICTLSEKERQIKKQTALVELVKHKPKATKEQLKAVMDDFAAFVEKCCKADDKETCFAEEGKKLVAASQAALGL

[6] = Solubility of the compound; assay type: physicochemical
[7] = molecular target: T3, Proteinase-activated receptor 2 (Homo sapiens, UniProt P55085); experiment: Antagonist activity at PAR2 (unknown origin) expressed in human 1321N1 cells; assay type: cell-based
T3 sequence (P55085 whole entry): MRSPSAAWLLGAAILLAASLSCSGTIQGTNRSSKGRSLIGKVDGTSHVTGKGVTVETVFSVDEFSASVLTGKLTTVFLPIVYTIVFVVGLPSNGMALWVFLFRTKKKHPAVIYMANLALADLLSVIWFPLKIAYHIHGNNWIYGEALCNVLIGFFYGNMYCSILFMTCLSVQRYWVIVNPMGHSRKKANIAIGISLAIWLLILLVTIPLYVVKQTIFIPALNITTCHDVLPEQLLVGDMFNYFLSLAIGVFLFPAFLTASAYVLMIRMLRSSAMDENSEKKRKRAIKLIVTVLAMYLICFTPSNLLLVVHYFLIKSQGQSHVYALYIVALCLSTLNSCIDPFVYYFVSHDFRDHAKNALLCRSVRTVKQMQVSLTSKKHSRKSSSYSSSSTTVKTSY

[8] = molecular target: Mitogen-activated protein kinase 10 (Homo sapiens, UniProt P53779); experiment: Binding affinity to JNK3 (unknown origin) assessed as inhibition constant
Chain of Mitogen-activated protein kinase 10 (P53779 whole entry): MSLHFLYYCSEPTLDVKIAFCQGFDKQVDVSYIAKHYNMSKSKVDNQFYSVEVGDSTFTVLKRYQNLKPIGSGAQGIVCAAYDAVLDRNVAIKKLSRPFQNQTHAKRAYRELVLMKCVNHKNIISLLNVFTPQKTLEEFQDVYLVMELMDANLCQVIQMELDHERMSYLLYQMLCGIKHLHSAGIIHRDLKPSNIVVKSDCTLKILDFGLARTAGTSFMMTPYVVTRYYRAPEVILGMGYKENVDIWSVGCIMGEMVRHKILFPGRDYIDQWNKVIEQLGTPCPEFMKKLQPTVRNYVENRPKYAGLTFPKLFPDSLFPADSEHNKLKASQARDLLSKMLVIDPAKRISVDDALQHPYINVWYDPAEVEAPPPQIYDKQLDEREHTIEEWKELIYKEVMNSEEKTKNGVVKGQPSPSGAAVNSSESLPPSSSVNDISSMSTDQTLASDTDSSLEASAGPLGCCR

Quadruplex DNA [9] = experiment: Binding affinity to c-MYC G4 quadruplex DNA (unknown origin) assessed as dissociation constant by fluorescence titration based analysis; assay type: nucleic-acid assay
Quadruplex DNA [10] = experiment: Binding affinity to c-MYC G4- quadruplex DNA Pu22 (unknown origin) assessed as inhibition constant by SPR analysis; assay type: nucleic-acid assay
[11] = Binding affinity to Peptoid-inspired conformationally constrained oligomer (unknown origin) assessed as dissociation constant
[12] = molecular target: Mitogen-activated protein kinase 8 (Homo sapiens, UniProt P45983); experiment: Binding affinity to JNK1 (unknown origin) assessed as dissociation constant
Chain of Mitogen-activated protein kinase 8 (P45983 whole entry): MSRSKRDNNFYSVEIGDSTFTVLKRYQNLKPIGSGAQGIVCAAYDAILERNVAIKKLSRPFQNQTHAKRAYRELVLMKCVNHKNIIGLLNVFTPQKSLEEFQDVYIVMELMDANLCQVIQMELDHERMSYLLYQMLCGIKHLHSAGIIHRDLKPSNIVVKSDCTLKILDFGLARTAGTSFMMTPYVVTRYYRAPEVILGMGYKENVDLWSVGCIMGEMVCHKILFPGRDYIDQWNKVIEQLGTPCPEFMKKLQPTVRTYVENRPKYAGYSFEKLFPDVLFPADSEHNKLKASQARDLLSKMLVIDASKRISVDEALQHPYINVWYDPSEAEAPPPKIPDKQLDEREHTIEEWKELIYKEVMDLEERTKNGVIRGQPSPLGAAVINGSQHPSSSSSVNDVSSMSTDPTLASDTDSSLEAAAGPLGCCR

Carbonic anhydrase 9 = Carbonic anhydrase 9 (Homo sapiens, UniProt Q16790); experiment: Inhibition of human recombinant carbonic anhydrase IX

- IC50 [1]: 0.0458 µM
Structure (SMILES): O=C(c1ccccc1)N1CCC2(CCCN(c3ncc(-c4ccccc4)c(-c4ccc(Cl)cc4)n3)C2)CC1

- MIC (Bacillus subtilis): 0.063 mg/L (≈ 0.19 µM)
- MIC (Escherichia coli): 0.016 mg/L (≈ 0.0481 µM)
Structure (SMILES): O=C(O)c1cn(C2CC2)c2nc(N3CCNCC3)c(F)cc2c1=O

- Kd [2]: 0.015 µM
Structure (SMILES): Cc1cn(CC(=O)N[C@@H](CCCCn2cc(-c3ccncc3F)nn2)C(N)=O)c(=O)[nH]c1=O

Structure (SMILES): CCOc1ccccc1N1CCN(c2ncnc(N3CCC(S(=O)(=O)O)CC3)n2)CC1
- Ki [3]: 0.26 µM

- IC50 (Autotaxin): 2.8 µM
Structure (SMILES): NC(=O)CN1CN(c2ccccc2)C2(CCN(C(=O)CCc3ccc(Cl)cc3Cl)CC2)C1=O

- Ki [4]: 0.0175 µM
Structure (SMILES): Cn1c(-c2c[nH]c3cc(C#N)ccc23)nc2ccc(C(=O)N3CCOC(c4ccccc4)C3CO)cc21 (stereo unspecified)

- IC50 [5]: 2.1 µM
Structure (SMILES): COc1ccc(Nc2nc(NCCc3ccccc3F)nc(Nc3ccc4ncccc4c3)n2)cc1OC

- Ki (Prothrombin): 0.001 µM
Structure (SMILES): CNC(=O)[C@@H]1CN(C(=O)[C@@H](Cc2ccccc2CNC(=N)N)NC(=O)N(C)C2CCOc3ccccc32)C[C@H]1c1ccc(OC)cc1 (stereo partly specified)

- IC50 (CREB-binding protein): 17 µM
Structure (SMILES): C[C@@H]1CC(=O)Cc2cccc(C(=O)NCCNC(=O)CSC(=S)c3ccccc3)c2N1

- Ki (Albumin): 0.0497 µM
- solubility [6]: 0.054 mg/mL (≈ 87.8 µM)
Structure (SMILES): NCCOCCOCCNC(=O)c1cccc(NC(=O)OC2CCN(C(=O)c3ccc(-c4nc5ccccc5[nH]4)cc3)CC2)c1

- IC50 [7]: 0.023 µM
Structure (SMILES): CC(C1CCCCC1)n1c(-c2cc3c(cc2Br)OCO3)nc2cc(C(=O)Nc3ccc(C#N)cc3)ccc21 (stereo unspecified)

- Ki [8]: 0.0012 µM
Structure (SMILES): CCn1c(-c2ccccc2-c2ccc(C)cc2C)nc2cc(C(=O)NC)ccc21

- Kd (Quadruplex DNA [9]): 1.05 µM
Structure (SMILES): CNC(=O)CN(Cc1ccc(OCC(=O)NCc2nc3ccccc3c(=O)[nH]2)c(Cl)c1)Cc1cccn1C

Structure (SMILES): CCOc1ccccc1N1CCN(c2ncnc(N3CCC(C(=O)O)CC3)n2)CC1
- Ki [3]: 0.53 µM

- Ki (Quadruplex DNA [10]): 0.328 µM
Structure (SMILES): Cc1cnccc1N1CCN(c2nccc3c2nc(-c2c[nH]c4ccncc24)n3C)CC1

- Kd [11]: 0.03 µM
Structure (SMILES): NC(=O)c1coc(CN(Cc2ccc3c(c2)OCO3)C(=O)c2coc(CN(Cc3ccc4c(c3)OCO4)C(=O)c3ncc(CCl)o3)n2)n1

- IC50 [1]: 0.0421 µM
Structure (SMILES): O=C(c1ccc2[nH]ccc2c1)N1CCC2(CCCN(c3ncc(-c4ccccc4)c(-c4ccc(Cl)cc4)n3)C2)CC1

- Kd [12]: 1 µM
Structure (SMILES): O=C(/C=C/C(=O)c1ccc(F)c(F)c1)NCCOCCOCCNC(=O)c1cccnc1Oc1ccccc1

- IC50 (Carbonic anhydrase 9): 0.0201 µM
Structure (SMILES): CNC(=O)[C@@H]1[C@@H](c2ccc(-c3ccc(S(N)(=O)=O)cc3)cc2)CN1Cc1ccc(O)c2ncccc12
